#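 Abbreviation: GI50, concentration required for 50% inhibition of growth. TGI is the concentration that stops growth completely.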
# Columns and labels:
# Assay in all cases: NCI tumour cell line growth inhibition, 384-well format
# [1] = tested on: 786-0 renal
# [2] = tested on: A498 renal
# [3] = tested on: ACHN renal
# [4] = tested on: BT-549 breast
# [5] = tested on: CAKI-1 renal
# [6] = tested on: CCRF-CEM leukemia
# [7] = tested on: COLO 205 colon
# [8] = tested on: DU-145 prostate
# [9] = tested on: EKVX NSCLC
# [10] = tested on: HCC-2998 colon
# [11] = tested on: HCT-15 colon
# [12] = tested on: HL-60(TB) leukemia
# [13] = tested on: HOP-62 NSCLC
# [14] = tested on: HOP-92 NSCLC
# [15] = tested on: HS 578T breast
# [16] = tested on: HT29 colon
# [17] = tested on: IGROV1 ovarian
# [18] = tested on: K-562 leukemia
# [19] = tested on: KM12 colon
# [20] = tested on: LOX IMVI melanoma
# [21] = tested on: M14 melanoma
# [22] = tested on: MALME-3M melanoma
# [23] = tested on: MCF7 breast
# [24] = tested on: MDA-MB-231 breast
# [25] = tested on: MDA-MB-435 melanoma
# [26] = tested on: MDA-MB-468 breast
# [27] = tested on: MOLT-4 leukemia
# [28] = tested on: NCI-H226 lung
# [29] = tested on: NCI-H23 lung
# [30] = tested on: NCI-H322M lung
# [31] = tested on: NCI-H460 NSCLC
# [32] = tested on: NCI-H522 lung
# [33] = tested on: NCI/ADR-RES ovarian
# [34] = tested on: OVCAR-3 ovarian
# [35] = tested on: OVCAR-4 ovarian
# [36] = tested on: OVCAR-5 ovarian
# [37] = tested on: OVCAR-8 ovarian
# [38] = tested on: PC-3 prostate
# [39] = tested on: RPMI-8226 leukemia
# [40] = tested on: RXF 393 renal
# [41] = tested on: SF-268 CNS
# [42] = tested on: SF-295 CNS
# [43] = tested on: SF-539 CNS
# [44] = tested on: SK-MEL-28 melanoma
# [45] = tested on: SK-MEL-5 melanoma
# [46] = tested on: SK-OV-3 ovarian
# [47] = tested on: SN12C renal
# [48] = tested on: SNB-19 CNS
# [49] = tested on: SNB-75 CNS
# [50] = tested on: SR leukemia
# [51] = tested on: SW-620 colon
# [52] = tested on: T-47D breast
# [53] = tested on: TK-10 renal
# [54] = tested on: UACC-257 melanoma
# [55] = tested on: UACC-62 melanoma
# [56] = tested on: UO-31 renal
# [57] = tested on: A549 NSCLC
# [58] = tested on: U251 glioblastoma
compound,measurement,setting,value
CC(C)c1cnn2c(NCc3ccccc3)cc(NC[C@H]3CCNC[C@@H]3O)nc12,GI50,[1],211 nM
same,TGI,[1],1520 nM
same,GI50,[2],157 nM
same,TGI,[2],599 nM
same,GI50,[3],782 nM
same,TGI,[3],11200 nM
same,GI50,[4],241 nM
same,TGI,[4],519 nM
same,GI50,[5],317 nM
same,TGI,[5],2820 nM
same,GI50,[6],213 nM
same,TGI,[6],380 nM
same,GI50,[7],133 nM
same,TGI,[7],411 nM
same,GI50,[8],111 nM
same,TGI,[8],1780 nM
same,GI50,[9],467 nM
same,TGI,[9],2530 nM
same,GI50,[10],223 nM
same,TGI,[10],787 nM
same,GI50,[11],1300 nM
same,TGI,[11],8560 nM
same,GI50,[12],156 nM
same,TGI,[12],291 nM
same,GI50,[13],131 nM
same,TGI,[13],346 nM
same,GI50,[14],382 nM
same,TGI,[14],2340 nM
same,GI50,[15],214 nM
same,TGI,[15],501 nM
same,GI50,[16],330 nM
same,TGI,[16],10700 nM
same,GI50,[17],332 nM
same,TGI,[17],2870 nM
same,GI50,[18],389 nM
same,TGI,[18],1960 nM
same,GI50,[19],128 nM
same,TGI,[19],541 nM
same,GI50,[20],84.5 nM
same,TGI,[20],260 nM
same,GI50,[21],292 nM
same,TGI,[21],1190 nM
same,GI50,[22],345 nM
same,TGI,[22],1800 nM
same,GI50,[23],113 nM
same,TGI,[23],474 nM
same,GI50,[24],290 nM
same,TGI,[24],1730 nM
same,GI50,[25],409 nM
same,TGI,[25],1450 nM
same,GI50,[26],328 nM
same,TGI,[26],662 nM
same,GI50,[27],122 nM
same,TGI,[27],267 nM
same,GI50,[28],193 nM
same,TGI,[28],675 nM
same,GI50,[29],167 nM
same,TGI,[29],644 nM
same,GI50,[30],291 nM
same,TGI,[30],975 nM
same,GI50,[31],22.6 nM
same,TGI,[31],64.6 nM
same,GI50,[32],164 nM
same,TGI,[32],1680 nM
same,GI50,[33],13800 nM
same,TGI,[33],28900 nM
same,GI50,[34],105 nM
same,TGI,[34],578 nM
same,GI50,[35],154 nM
same,TGI,[35],475 nM
same,GI50,[36],246 nM
same,TGI,[36],770 nM
same,GI50,[37],249 nM
same,TGI,[37],973 nM
same,GI50,[38],271 nM
same,TGI,[38],985 nM
same,GI50,[39],16.9 nM
same,TGI,[39],56.5 nM
same,GI50,[40],251 nM
same,TGI,[40],635 nM
same,GI50,[41],173 nM
same,TGI,[41],411 nM
same,GI50,[42],419 nM
same,TGI,[42],3460 nM
same,GI50,[43],107 nM
same,TGI,[43],345 nM
same,GI50,[44],226 nM
same,TGI,[44],1130 nM
same,GI50,[45],242 nM
same,TGI,[45],655 nM
same,GI50,[46],360 nM
same,TGI,[46],6890 nM
same,GI50,[47],168 nM
same,TGI,[47],841 nM
same,GI50,[48],410 nM
same,TGI,[48],10500 nM
same,GI50,[49],789 nM
same,TGI,[49],2040 nM
same,GI50,[50],23.5 nM
same,TGI,[50],103 nM
same,GI50,[51],167 nM
same,TGI,[51],1660 nM
same,GI50,[52],404 nM
same,TGI,[52],3740 nM
same,GI50,[53],2980 nM
same,TGI,[53],14000 nM
same,GI50,[54],371 nM
same,TGI,[54],1660 nM
same,GI50,[55],57.8 nM
same,TGI,[55],238 nM
same,GI50,[56],3870 nM
same,TGI,[56],14800 nM
CN(Cc1cnc2nc(N)nc(N)c2n1)c1ccc(C(=O)N[C@@H](CCC(=O)O)C(=O)O)cc1,GI50,[2],< 18.8 nM
same,TGI,[2],232 nM
same,TGI,[57],17.8 nM
same,GI50,[5],26.3 nM
same,TGI,[5],73.8 nM
same,TGI,[6],< 11.3 nM
same,GI50,[7],51.3 nM
same,TGI,[7],95900 nM
same,GI50,[10],39.1 nM
same,TGI,[12],< 14.2 nM
same,GI50,[13],37.5 nM
same,TGI,[13],123 nM
same,GI50,[15],< 15.1 nM
same,TGI,[15],31.6 nM
same,GI50,[17],28.6 nM
same,TGI,[20],14 nM
same,GI50,[22],< 15.3 nM
same,GI50,[24],263 nM
same,TGI,[24],680 nM
same,TGI,[27],18.1 nM
same,GI50,[28],28.9 nM
same,GI50,[29],30.4 nM
same,TGI,[29],308 nM
same,GI50,[30],< 12.6 nM
same,TGI,[30],22.6 nM
same,GI50,[32],32 nM
same,TGI,[32],543 nM
same,GI50,[34],< 14.8 nM
same,TGI,[34],27.6 nM
same,TGI,[35],66.5 nM
same,TGI,[36],< 15.4 nM
same,GI50,[39],17.3 nM
same,TGI,[39],42.1 nM
same,GI50,[42],< 13.5 nM
same,TGI,[42],< 20.9 nM
same,TGI,[43],13600 nM
same,GI50,[44],27.7 nM
same,TGI,[44],60.7 nM
same,GI50,[45],130 nM
same,TGI,[45],87300 nM
same,GI50,[46],1450 nM
same,GI50,[48],< 19.7 nM
same,GI50,[49],< 12.9 nM
same,TGI,[49],< 28.3 nM
same,GI50,[53],23.6 nM
same,TGI,[53],52.3 nM
same,GI50,[58],31.7 nM
same,GI50,[55],18.9 nM
same,GI50,[56],29.5 nM
same,TGI,[56],9760 nM
FC(F)(c1ccc2ncccc2c1)c1nnc2ccc(-c3ccncc3)nn12,GI50,[1],191 nM
same,TGI,[1],> 100000 nM
same,GI50,[10],< 10 nM
same,TGI,[10],> 100000 nM
same,GI50,[11],55.7 nM
same,TGI,[11],> 100000 nM
same,GI50,[15],< 10 nM
same,TGI,[15],137 nM
same,GI50,[16],185 nM
same,TGI,[16],> 100000 nM
same,GI50,[18],219 nM
same,TGI,[18],> 100000 nM
same,GI50,[26],22 nM
same,TGI,[26],628 nM
same,GI50,[27],10.2 nM
same,TGI,[27],183 nM
same,GI50,[30],< 10 nM
same,TGI,[30],> 100000 nM
same,GI50,[31],< 10 nM
same,TGI,[31],> 100000 nM
same,GI50,[33],460 nM
same,TGI,[33],27200 nM
same,GI50,[36],112 nM
same,TGI,[36],> 100000 nM
same,GI50,[39],< 10 nM
same,GI50,[40],11.2 nM
same,TGI,[40],206 nM
same,GI50,[42],< 10 nM
same,TGI,[42],108 nM
same,GI50,[43],164 nM
same,TGI,[43],> 100000 nM
same,GI50,[47],33 nM
same,TGI,[47],> 100000 nM
same,GI50,[50],< 10 nM
same,TGI,[50],126 nM

# — PubChem BioAssay (NCI)
